Experimental data as given in paper PMC3635961, “Identification of genes related to agarwood formation: transcriptome analysis of healthy and wounded tissues of Aquilaria sinensis” (BMC Genomics, 2013).
Residue numbers refer to the chain shown, from its start.

Key:
Experiment in all cases: GC-MS of volatile products (SPME)
Type in all cases: biochemical
Settings in all cases: Tris-HCl pH 7.0, MgSO4, DTT, 10% glycerol, 30 C, 4 h; crude protein extract
[1] = molecular target: T1, ASS1 (Aquilaria sinensis, UniProt K9MQ67)
T1 construct: full-length ORF (1644 nt, 547 residues), pET-28a XhoI/BamHI, His-tag fusion, E. coli BL21(DE3); crude protein extract assayed

[2] = molecular target: T2, ASS2 (Aquilaria sinensis, UniProt K9MNV6)
T2 construct: full-length ORF (1644 nt, 547 residues), pET-28a fusion protein, E. coli; crude protein extract assayed
T2 sequence (K9MNV6 1-547): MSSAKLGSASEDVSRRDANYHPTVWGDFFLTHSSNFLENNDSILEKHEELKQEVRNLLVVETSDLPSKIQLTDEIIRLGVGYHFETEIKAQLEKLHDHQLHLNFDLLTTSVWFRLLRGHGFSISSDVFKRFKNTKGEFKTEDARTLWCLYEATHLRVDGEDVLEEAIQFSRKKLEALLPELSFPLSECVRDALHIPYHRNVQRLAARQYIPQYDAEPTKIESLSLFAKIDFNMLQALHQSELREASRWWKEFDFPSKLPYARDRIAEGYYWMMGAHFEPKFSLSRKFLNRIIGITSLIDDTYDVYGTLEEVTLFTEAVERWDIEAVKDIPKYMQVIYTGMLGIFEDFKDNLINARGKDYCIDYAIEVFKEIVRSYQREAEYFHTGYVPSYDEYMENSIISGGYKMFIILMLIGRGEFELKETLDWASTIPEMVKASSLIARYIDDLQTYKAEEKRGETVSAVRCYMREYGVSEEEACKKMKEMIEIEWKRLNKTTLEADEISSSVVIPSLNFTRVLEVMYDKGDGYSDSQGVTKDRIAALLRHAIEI

[3] = molecular target: T3, ASS3 (Aquilaria sinensis, UniProt K9MPP8)
T3 construct: full-length ORF (1644 nt, 547 residues), pET-28a fusion protein, E. coli; crude protein extract assayed
T3 sequence (K9MPP8 1-547): T2 sequence (K9MNV6 1-547) with K454E, K481R

T1 sequence (K9MQ67 entry or part of it): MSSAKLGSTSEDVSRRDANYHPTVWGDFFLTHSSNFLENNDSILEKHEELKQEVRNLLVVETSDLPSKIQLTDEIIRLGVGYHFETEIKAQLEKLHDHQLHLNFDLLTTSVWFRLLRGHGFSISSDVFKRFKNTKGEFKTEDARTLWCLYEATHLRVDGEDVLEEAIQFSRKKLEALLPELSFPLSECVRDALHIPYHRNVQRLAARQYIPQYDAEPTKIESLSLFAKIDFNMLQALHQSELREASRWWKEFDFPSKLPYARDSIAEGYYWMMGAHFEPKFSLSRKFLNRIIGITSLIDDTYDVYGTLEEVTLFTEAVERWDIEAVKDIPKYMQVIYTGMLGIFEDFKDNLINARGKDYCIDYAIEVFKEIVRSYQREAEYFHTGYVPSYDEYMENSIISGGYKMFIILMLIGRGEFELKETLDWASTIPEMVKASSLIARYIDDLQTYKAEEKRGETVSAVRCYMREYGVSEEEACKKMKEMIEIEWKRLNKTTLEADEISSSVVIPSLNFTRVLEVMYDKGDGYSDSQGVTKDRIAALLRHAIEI

Question: What does the source list for `CC(C)=CCC/C(C)=C/CC/C(C)=C/COP(=O)(O)OP(=O)(O)O` [FPP]?
Answer: GC-MS of volatile products (SPME) [1]: ASS1-3 did not accept geranyl diphosphate or geranylgeranyl diphosphate as a substrate, converting only FPP; GC-MS of volatile products (SPME) [2]: ASS1-3 did not accept geranyl diphosphate or geranylgeranyl diphosphate as a substrate, converting only FPP; GC-MS of volatile products (SPME) [3]: ASS1-3 did not accept geranyl diphosphate or geranylgeranyl diphosphate as a substrate, converting only FPP
